Measured values as given in patent US5294720A, “1,4-diamino-2,3-dihydroxybutanes” (The DuPont Merck Pharmaceutical Co., priority 1991, dated 1994).
Converted amounts (≈) assume the structure as drawn. Counter-ions that a name gives are not always drawn. Like-named read-outs stand apart in the source and are kept apart here.

Legend:
HIV protease = target: T1, HIV protease (Human immunodeficiency virus type 1 group M subtype B, UniProt P04585); assay: Cell free protease inhibition assay (HIV gag polyprotein cleavage); format: biochemical; conditions: Table XVII, unit inferred, IC50 per method
T1 construct: inclusion bodies of E. coli harboring plasmid containing HIV protease under the control of the T7 promotor; made in house; host or cells: E. coli (A: crude lysate, lac promotor)
Source text: HIV gag polyprotein corresponding to all of p17 and 78 amino acids of p24, produced by in vitro translation using rabbit reticulocyte lysate and mRNA prepared in vitro from plasmid encoding full length gag polyprotein linerized with the restriction enzyme Pst 1. (See S. Erickson-Viitanen et al., Aids Research and Human Retroviruses, 5 (6), 577 (1989) for plasmid construction, and basis for assay).
Source of protease: Either (A) crude E. coli lysate of bacteria harboring a plasmid containing HIV protease under the control of the lac promotor, used at a final concentration of 0.5 mg/ml, or (B) inclusion bodies of E. coli harboring plasmid containing HIV protease under the control of the T7 promotor (Cheng et al., Gene, in press (1990). Such inclusion bodies were solubilized in 8M urea, 50 mM Tris pH 8.0. Protease activity was recovered by dilution of the inclusion bodies 20-fold in buffer containing 50 mM Sodium Acetate, pH 5.5, 1 mM EDTA, 10% glycerol and 5% ethylene glycol. This protease source was used at a final concentration of 0.00875 mg/ml.
Inhibitory compounds were dissolved in sufficient DMSO to make a 25 mM stock concentration. All further dilutions were done in DMSO.
Into sterile test tubes were placed the following:
14 ul HIV protease in Phosphate Buffered Saline (Gibco)
5 ul of in vitro translation products.
Reactions were incubated at 30° C., then quenched by the addition of Sample buffer. See U. K. Laemmli, Nature, 1970, 227:680-685.
One fourth of each sample was analyzed on an 8-16% gradient denaturing acrylamide gel (Novex, Inc), according to Laemmli. Following electrophoresis, gels were fixed, impregnated with Enhance (Du Pont NEN, Boston, Mass.) and dried according to manufacturers instructions (NEN). Dried fluorographs were exposed to film and/or quantitated using an Ambis radioanalytic scanner.
Each group of test compounds was compared to the values obtained for pepstatin, a well known inhibitor of acid proteases. Inhibitory concentration for 50% inhibition (IC50) is determined from plots of log concentration inhibitor versus % inhibition of protease activity.
Biological Activity: IC50 is the concentration necessary for reducing the activity of the enzyme by 50%.

HIV(3b) or HIV(Rf) = assay: HIV cell assay (HIV low multiplicity assay, protection of MT-2 cells from virus induced cell death, XTT); format: cell-based, Human immunodeficiency virus; conditions: for Cell Assay IC50: unit not given
Description: […], a human T-cell line, was cultured in RPMI medium supplemented with 5% (v/v) heat inactivated fetal calf serum (FCS), L-glutamine and gentamycin (GIBCO). Human immunodeficiency virus strains HIV(3b) and HIV (Rf) were propagated in H-9 cells in RPMI with 5% FCS. XTT, benzene-sulfonic acid, 3,3'-[1-[(phenylamino)carbonyl]-3,4-tetrazolium]bis(4-methoxy-6-nitro)-, sodium salt, was obtained from Starks Associates, Inc.
Test compounds were dissolved in dimethyl-sulfoxide to 5 mg/ml and serially diluted into RPMI medium to ten times the desired final concentration. MT-2 cells (5×10E4/0.1 ml) were added to each well of a 96 well culture plate and 0.02 ml of the appropriate test compound solution was added to the cells such that each compound concentration was present in two wells. The cells and compounds were allowed to sit for 30 minutes at room temperature. HIV(3b) or HIV(Rf) (~5×10E5 plaque forming units/ml) was diluted in medium and added to the cell and compound mixtures to give a multiplicity of infection of 0.01 plaque forming unit/cell. The mixtures were incubated for 7 days at 36° C., during which time the virus replicated and caused the death of unprotected cells. The percentage of cells protected from virus induced cell death was determined by the degree of metabolism of the tetrazolium dye, XTT. In living cells, XTT was metabolized to a colored formazan product which was quantitated spectrophoto-metrically at […]. The amount of colored formazan was proportional to the number of cells protected from virus by the test compound. The concentration of compound protecting either 50% (IC50) or 90% (IC90) with respect to an uninfected cell culture was determined.

[1] = read-out: Cell Free Assay (converted)
[2] = Human immunodeficiency virus 1, MT2, Table XVII, unit inferred, HIV in MT-2 cells, read-out: Cell Assay IC90
[3] = Human immunodeficiency virus 1, MT2, Table XVII, unit inferred, HIV in MT-2 cells, read-out: Cell Assay IC50

| IC50 (HIV protease; [1]) [µM] | SMILES | other results |
| --- | --- | --- |
| 25.6 | CSCCC(NC(=O)OC(C)(C)C)C(O)C(O)C(CCSC)NC(=O)OC(C)(C)C (stereo not shown) [Example 1A] | IC90 (HIV(3b) or HIV(Rf); [2]): 6 µg/mL (≈ 12.8 µM); Cell Assay IC50 (HIV(3b) or HIV(Rf); Table XVII, HIV in MT-2 cells): 2 |
| 78.9 | CSCCC(NC(=O)OC(C)(C)C)C(O)C(O)C(CCSC)NC(=O)OC(C)(C)C (stereo not shown) [Example 1B] | Cell Assay IC50 (HIV(3b) or HIV(Rf); Table XVII, HIV in MT-2 cells): 5 |
| 24 | CC(C)(C)OC(=O)N[C@@H](Cc1ccccc1)[C@H](O)[C@@H](O)[C@H](Cc1ccccc1)NC(=O)OC(C)(C)C [Example 2A, Bis(1,1-dimethylethyl) (2,3-dihydroxy-1,4-(phenylmethyl)-1,4-butanediyl)biscarbamate (1S,2S,3S,4S)] | IC50 (HIV(3b) or HIV(Rf); [3]): 10 µg/mL (≈ 20 µM); IC90 (HIV(3b) or HIV(Rf); [2]): 30 µg/mL (≈ 59.9 µM) |
| 0.34 | CC(C)(C)OC(=O)N[C@@H](Cc1ccccc1)[C@@H](O)[C@H](O)[C@H](Cc1ccccc1)NC(=O)OC(C)(C)C [Example 2B] | IC50 (HIV(3b) or HIV(Rf); [3]): 1.9 µg/mL (≈ 3.8 µM); IC90 (HIV(3b) or HIV(Rf); [2]): 3 µg/mL (≈ 5.99 µM) |
| 61.9 | CC(C)(C)OC(=O)N[C@@H](Cc1ccccc1)[C@H](O)[C@H](O)[C@H](Cc1ccccc1)NC(=O)OC(C)(C)C [Example 2C, Bis(1,1-dimethylethyl) (2,3-dihydroxy-1,4-(phenylmethyl)-1,4-butanediyl)biscarbamate (1S,2S,3R,4S)] |  |
| 1200 | CC(C)(C)OC(=O)NCC(O)C(O)CNC(=O)OC(C)(C)C (stereo not shown) [Example 3, Bis(1,1-dimethylethyl) (2,3-dihydroxy-1,4-butanediyl)biscarbamate] |  |
| 1250 | CC(NC(=O)OC(C)(C)C)C(O)C(O)C(C)NC(=O)OC(C)(C)C (stereo not shown) [Example 4, Bis(1,1-dimethylethyl) (2,3-dihydroxy-1,4-dimethyl-1,4-butanediyl)biscarbamate] |  |
| 161 | CC(C)C(NC(=O)OC(C)(C)C)C(O)C(O)C(NC(=O)OC(C)(C)C)C(C)C (stereo not shown) [Example 5, Bis(1,1-dimethylethyl) (2,3-dihydroxy-1,4-(1-methylethyl)-1,4-butanediyl)biscarbamate] |  |
| 11.1 | CC(C)CC(NC(=O)OC(C)(C)C)C(O)C(O)C(CC(C)C)NC(=O)OC(C)(C)C (stereo not shown) [Example 6, Bis(1,1-dimethylethyl) (2,3-dihydroxy-1,4-(2-methylpropyl)-1,4-butanediyl)biscarbamate] |  |
| 1250 | CC(C)(C)OC(=O)N1CCCC1C(O)C(O)C1CCCN1C(=O)OC(C)(C)C (stereo not shown) [Example 7, Bis(1,1-dimethylethyl) 2,2'-(1,2-dihydroxy-1,2-ethanediyl)-1-bis(pyrrolidinecarboxylate)] |  |
| 1250 | CC(C)(C)OC(=O)NC(c1ccccc1)C(O)C(O)C(NC(=O)OC(C)(C)C)c1ccccc1 (stereo not shown) [Example 8, Bis (1,1-dimethylethyl) (2,3-dihydroxy-1,4-diphenyl-1,4-butanediyl)biscarbamate] |  |
| 0.914 | O=C(NC(Cc1ccccc1)C(O)C(O)C(Cc1ccccc1)NC(=O)OCc1ccccc1)OCc1ccccc1 (stereo not shown) [Example 9] |  |
| 1130 | CC(C)(C)OC(=O)NC(CCc1ccccc1)C(O)C(O)C(CCc1ccccc1)NC(=O)OC(C)(C)C (stereo not shown) [Example 10, Bis(1,1-dimethylethyl) (2,3-dihydroxy-1,4-(2-phenylmethyl)-1,4-butanediyl)biscarbamate] |  |
| 37.3 | CC(C)(C)OC(=O)NC(Cc1ccc(F)cc1)C(O)C(O)C(Cc1ccc(F)cc1)NC(=O)OC(C)(C)C (stereo not shown) [Example 11] |  |
| 5.45 | CC(C)(C)OC(=O)NC(Cc1ccc(I)cc1)C(O)C(O)C(Cc1ccc(I)cc1)NC(=O)OC(C)(C)C (stereo not shown) [Example 12] |  |
| 6.2 | CC(C)(C)OC(=O)NC(Cc1ccc(O)cc1)C(O)C(O)C(Cc1ccc(O)cc1)NC(=O)OC(C)(C)C (stereo not shown) [Example 13, Bis(1,1-dimethylethyl) (2,3-dihydroxy-1,4-(4-hydroxyphenyl)methyl-1,4-butaneidyl)biscarbamate] | IC50 (HIV(3b) or HIV(Rf); [3]): 2.3 µg/mL (≈ 4.32 µM); IC90 (HIV(3b) or HIV(Rf); [2]): 25 µg/mL (≈ 46.9 µM) |
| 1250 | CC(=O)N[C@@H](Cc1ccccc1)[C@@H](O)[C@H](O)[C@H](Cc1ccccc1)NC(C)=O [Example 14, N,N'-((2,3-dihydroxy-1,4-(phenylmethyl)-1,4-butanediyl))bisacetamide] |  |
| 866 | N[C@@H](Cc1ccccc1)[C@H](O)[C@@H](O)[C@@H](N)Cc1ccccc1 [Example 15, 2,5-Diamino-1,6-diphenyl-3,4-hexanediol dihydrochloride] |  |
| 866 | N[C@@H](Cc1ccccc1)[C@@H](O)[C@H](O)[C@@H](N)Cc1ccccc1 [Example 16, 2,5-Diamino-1,6-diphenyl-3,4-hexanediol dihydrochloride] |  |
| 1260 | CC(N)C(O)C(O)C(C)N (stereo not shown) [Example 17, 2,5-Diamino-3,4-hexanediol dihydrochloride] |  |
|  | CC(NC(=O)C(NC(=O)OC(C)(C)C)C(C)O)C(=O)NC(C(=O)NC(C)C(=O)NC(Cc1ccccc1)C(O)C(O)C(Cc1ccccc1)NC(=O)C(C)NC(=O)C(NC(=O)C(C)NC(=O)C(NC(=O)OC(C)(C)C)C(C)O)C(C)O)C(C)O (stereo not drawn) [Example 18, Bis(Boc-Thr-Ala-Thr-Ala), N,N'((2,3-dihydroxy-1,4-(phenylmethyl)-1,4-butanediyl))biscarbamate] | IC50 (HIV protease; read-out: Cell Free Assay): 1.93 µM; IC50 (HIV(3b) or HIV(Rf); Human immunodeficiency virus 1, MT2, read-out: Cell Assay IC50): 6 µg/mL (≈ 5.04 µM); IC90 (HIV(3b) or HIV(Rf); Human immunodeficiency virus 1, MT2, read-out: Cell Assay IC90): 12 µg/mL (≈ 10.1 µM) |
| 0.0131 | CC[C@H](C)[C@H](NC(=O)Cc1ccccn1)C(=O)N[C@@H](Cc1ccccc1)[C@@H](O)[C@H](O)[C@H](Cc1ccccc1)NC(=O)[C@@H](NC(=O)Cc1ccccn1)[C@@H](C)CC [Example 20, 2,5-(N-2-Pyridylacetyl-L-Ile)diamino-1,6-diphenyl-3,4-hexanediol] | IC50 (HIV(3b) or HIV(Rf); [3]): < 1 µg/mL; IC90 (HIV(3b) or HIV(Rf); [2]): < 1 µg/mL |
| 0.00261 | CCC(C)C(NC(=O)Cc1ccccn1)C(=O)NC(Cc1ccccc1)C(O)C(O)C(Cc1ccccc1)NC(=O)C(NC(=O)Cc1ccccn1)C(C)CC [Example 21, 2,5-(N-2-Pyridyl-L-Ile,N'-2-pyridyl-D-Ile)diamino-1,6-diphenyl-3,4-hexanediol] | IC50 (HIV(3b) or HIV(Rf); [3]): 6 µg/mL (≈ 7.84 µM) |
